Reference: US20210220328A1, “PYRROLE DERIVATIVES AS ACC INHIBITORS” (Almirall, S.A., priority 2017, published 2021)

Key:
sebocytes = details: Hunt D. et al. J Invest Dermatol. 2017; cited from earlier work
sebaceous gland activity = details: Hunt D. et al. J Invest Dermatol. 2017; cited from earlier work
[1] = tested on: immortalized human sebocyte cell line, SZ95; assay: In vitro assay of inhibition of lipid synthesis; assay type: cell-based; details: 48 h, SZ95 sebocytes
Summary of the method: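 Human SZ95 sebocytes were preincubated with compound for 30 min, then stimulated with 75 μM arachidonic acid for 48 h at 37 °C. Neutral lipids were stained with AdipoRed and read by fluorescence (ex 485/em 535). % inhibition was normalized between AA-stimulated and unstimulated cells.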

[2] = 75 μM arachidonic acid, AdipoRed, Table 2, finer classes for compounds with IC50 less than 250 nM
[3] = lipid synthesis induced by 75 μM arachidonic acid, AdipoRed fluorescence, Table 1

| SMILES | potency inhibiting sebum production by sebocytes (sebocytes) | activity in an in vivo model of sebaceous gland activity (sebaceous gland activity) | IC50 [1, 2] | IC50 [1, 3] |
| --- | --- | --- | --- | --- |
| CCCCCCCCCCCCCCOc1ccc(C(=O)OCC(=O)N(C)CC(=O)OCC)o1 [Olumacostat Glasaretil] | low potency | poor activity |  |  |
| CCCCCCCCCCCCCCOc1c[nH]c(C(=O)O)c1F [Example 75, 3-Fluoro-4-(tetradecyloxy)-1H-pyrrole-2-carboxylic acid] |  |  | < 50 nM | < 250 nM |
| CCCCCCCCCCCc1cc(F)c(C(=O)O)[nH]1 [Example 119, 3-Fluoro-5-undecyl-1H-pyrrole-2-carboxylic acid] |  |  | 50 to 100 nM | < 250 nM |
| CCCCCCCCCCCCCc1c[nH]c(C(=O)OCCCCCO)c1F [Example 35, 5-Hydroxypentyl 3-fluoro-4-tridecyl-1H-pyrrole-2-carboxylate] |  |  | 100 to 250 nM | < 250 nM |
| CCCCCCCCCCCC(F)(F)Cc1c[nH]c(C(=O)O)c1F [Example 94, 4-(2,2-Difluorotridecyl)-3-fluoro-1H-pyrrole-2-carboxylic acid] |  |  | 100 to 250 nM | < 250 nM |
| CCCCCCCCCCCCc1c[nH]c(C(=O)O)c1Cl [Example 58, 3-Chloro-4-dodecyl-1H-pyrrole-2-carboxylic acid] |  |  | < 50 nM | < 250 nM |
| CCCCCCCCCCCCOc1c[nH]c(C(=O)OCc2oc(=O)oc2C)c1 [Example 11, (5-methyl-2-oxo-1,3-dioxol-4-yl)methyl 4-(dodecyloxy)-1H-pyrrole-2-carboxylate] |  |  | 100 to 250 nM | < 250 nM |
| CCCCCCCCCCCCOc1c[nH]c(C(=O)OC(C)OC(=O)OCCCO)c1Cl (centres unmarked) [Example 87, 1-(((3-Hydroxypropoxy)carbonyl)oxy)ethyl 3-chloro-4-(dodecyloxy)-1H-pyrrole-2-carboxylate] |  |  | < 50 nM | < 250 nM |
| CCCCCCCCCCCC(C)(C)COc1c[nH]c(C(=O)O)c1F [Example 96, 4-((2,2-Dimethyltridecyl)oxy)-3-fluoro-1H-pyrrole-2-carboxylic acid] |  |  | 50 to 100 nM | < 250 nM |
| O=C(O)c1[nH]c(CCCCCCCCCCCCCCF)cc1F [Example 131, 3-Fluoro-5-(14-fluorotetradecyl)-1H-pyrrole-2-carboxylic acid] |  |  | 100 to 250 nM | < 250 nM |
